Some results are limits rather than exact numbers.

By IC50 is commonly meant the concentration that gives 50% inhibition. High values mean lower potency, low ones higher potency.

For this assay, the target named is T1, ALK (baculovirus expressed human ALK kinase domain F1098-K1410) (Homo sapiens, UniProt Q9UM73).
T1 construct: baculovirus expressed human ALK kinase domain F1098-K1410; made in house
T1 sequence (Q9UM73 1098-1410): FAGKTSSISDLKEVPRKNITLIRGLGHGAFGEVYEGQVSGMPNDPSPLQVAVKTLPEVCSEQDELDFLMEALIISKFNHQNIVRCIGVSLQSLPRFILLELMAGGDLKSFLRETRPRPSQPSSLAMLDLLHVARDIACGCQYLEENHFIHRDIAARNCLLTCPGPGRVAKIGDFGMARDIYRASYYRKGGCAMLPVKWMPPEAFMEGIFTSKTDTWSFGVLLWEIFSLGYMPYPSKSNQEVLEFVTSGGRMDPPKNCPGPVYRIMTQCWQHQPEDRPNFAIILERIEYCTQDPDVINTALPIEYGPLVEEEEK
The experiment in a line: Luciferase-Coupled Chemiluminescent Kinase assay (LCCA), ALK biochemical activity. The note with it: inhibition of ALK; mean values; 1 μM ATP, 4 μM poly-AEKY, 12 nM ALK, 2 hours ambient temperature. The gist of the method: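 Luciferase-coupled readout of ATP remaining after reaction of 12 nM ALK kinase domain with 1 μM ATP and 4 μM poly-AEKY, Tris-HCl pH 7.5 buffer with MgCl2 and MnCl2. Incubated 2 h at ambient temperature; inhibition derived from ATP consumption across serial compound dilutions.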
For `COc1cc2c(-c3ccc(O)c(Cl)c3)nc3[nH]nc(C)c3c2cc1OC1CCCC1` [Example 166, 2-chloro-4-[8-(cyclopentyloxy)-1-methyl-7-(methyloxy)-3H-pyrazolo[3,4-c]isoquinolin-5-yl]phenol], the IC50 is no more than 99 nM.
On to `COCCOc1cc2c(cc1C(C)C)c(-c1ccc(O)c(Cl)c1)nc1[nH]nc(C)c12` [Example 167, 2-chloro-4-(1-methyl-7-(1-methylethyl)-8-{[2-(methyloxy)ethyl]oxy}-3H-pyrazolo[3,4-c]isoquinolin-5-yl)phenol], for which the IC50 is no more than 99 nM.
In turn, `CCc1c(OC)ccc2c(-c3ccc(O)c(Cl)c3)nc3[nH]nc(C)c3c12` [Example 168, 2-chloro-4-[9-ethyl-1-methyl-8-(methyloxy)-3H-pyrazolo[3,4-c]isoquinolin-5-yl]phenol] gave an IC50 of no more than 99 nM.
As for `Cc1n[nH]c2nc(-c3ccc(O)c(Cl)c3)c3c(F)cc(OCC4CCN(C)CC4)c(F)c3c12` [Example 169, 2-chloro-4-(6,9-difluoro-1-methyl-8-{[(1-methylpiperidin-4-yl)methyl]oxy}-3H-pyrazolo[3,4-c]isoquinolin-5-yl)phenol], the IC50 is no more than 99 nM.
In the case of `COc1c(F)cc2c(c(-c3ccc(O)c(Cl)c3)nc3[nH]nc(C)c32)c1O` [Example 170, 5-(3-chloro-4-hydroxyphenyl)-8-fluoro-1-methyl-7-(methyloxy)-3H-pyrazolo[3,4-c]isoquinolin-6-ol] it was no more than 99 nM; in that of `COc1c(OCC2CCN(C)CC2)cc2c(c(-c3ccc(O)c(Cl)c3)nc3[nH]nc(C)c32)c1F` [Example 171, 2-chloro-4-(6-fluoro-1-methyl-7-(methyloxy)-8-{[(1-methylpiperidin-4-yl)methyl]oxy}-3H-pyrazolo[3,4-c]isoquinolin-5-yl)phenol], no more than 99 nM.
For `COCCOc1cc(F)c2c(-c3ccc(O)c(Cl)c3)nc3[nH]nc(C)c3c2c1OCCOC` [Example 172, 2-chloro-4-(6-fluoro-1-methyl-8,9-bis{[2-(methyloxy)ethyl]oxy}-3H-pyrazolo[3,4-c]isoquinolin-5-yl)phenol], the IC50 is no more than 99 nM.
For the molecule `COc1ccc(-c2nc3[nH]nc(C)c3c3cc(OCC4CCN(C)CC4)c(OC)c(F)c23)cc1Cl` [Example 173, 5-[3-chloro-4-(methyloxy)phenyl]-6-fluoro-1-methyl-7-(methyloxy)-8-{[(1-methylpiperidin-4-yl)methyl]oxy}-3H-pyrazolo[3,4-c]isoquinoline], the IC50 is 1000 to 2000 nM.
On to `COc1ccc(-c2nc3[nH]nc(C)c3c3cc(F)c(OC)c(O)c23)cc1Cl` [Example 174, 5-[3-chloro-4-(methyloxy)phenyl]-8-fluoro-1-methyl-7-(methyloxy)-3H-pyrazolo[3,4-c]isoquinolin-6-ol], for which the IC50 was greater than 2000 nM.
To `COc1c(OCCN2CCCCC2)cc2c(c(-c3ccc(O)c(Cl)c3)nc3[nH]nc(C)c32)c1F` [Example 176, 2-chloro-4-{6-fluoro-1-methyl-7-(methyloxy)-8-[(2-piperidin-1-ylethyl)oxy]-3H-pyrazolo[3,4-c]isoquinolin-5-yl}phenol] belongs no more than 99 nM; to `CCN1CCN(CCOc2cc3c(c(-c4ccc(O)c(Cl)c4)nc4[nH]nc(C)c43)c(F)c2OC)CC1` [Example 177, 2-chloro-4-[8-{[2-(4-ethylpiperazin-1-yl)ethyl]oxy}-6-fluoro-1-methyl-7-(methyloxy)-3H-pyrazolo[3,4-c]isoquinolin-5-yl]phenol], no more than 99 nM; to `CCN(CC)CCOc1cc2c(c(-c3ccc(O)c(Cl)c3)nc3[nH]nc(C)c32)c(F)c1OC` [Example 178, 2-chloro-4-[8-{[2-(diethylamino)ethyl]oxy}-6-fluoro-1-methyl-7-(methyloxy)-3H-pyrazolo[3,4-c]isoquinolin-5-yl]phenol], no more than 99 nM.
In turn, `COCCOc1cc2c(c(-c3ccc(O)c(Cl)c3)nc3[nH]nc(C)c32)c(F)c1OC` [Example 179, 2-chloro-4-(6-fluoro-1-methyl-7-(methyloxy)-8-{[2-(methyloxy)ethyl]oxy}-3H-pyrazolo[3,4-c]isoquinolin-5-yl)phenol] came in with an IC50 of no more than 99 nM.
To `COc1c(OCC2CCN(C)CC2)cc(F)c2c(-c3ccc(O)c(Cl)c3)nc3[nH]nc(C)c3c12` [Example 182, 2-chloro-4-(6-fluoro-1-methyl-9-(methyloxy)-8-{[(1-methylpiperidin-4-yl)methyl]oxy}-3H-pyrazolo[3,4-c]isoquinolin-5-yl)phenol] belongs no more than 99 nM; to `COc1c(OCC2CCN(C)CC2)cc(F)c2c(-c3ccc(O)c(Br)c3)nc3[nH]nc(C)c3c12` [Example 183, 2-bromo-4-(6-fluoro-1-methyl-9-(methyloxy)-8-{[(1-methylpiperidin-4-yl)methyl]oxy}-3H-pyrazolo[3,4-c]isoquinolin-5-yl)phenol], no more than 99 nM; to `COc1c(OCC2CCN(C)CC2)cc(F)c2c(-c3cc(Cl)c(O)cc3F)nc3[nH]nc(C)c3c12` [Example 184, 2-chloro-5-fluoro-4-(6-fluoro-1-methyl-9-(methyloxy)-8-{[(1-methylpiperidin-4-yl)methyl]oxy}-3H-pyrazolo[3,4-c]isoquinolin-5-yl)phenol], no more than 99 nM.
The molecule `COc1c(OCC2CCN(C)CC2)cc(F)c2c(-c3ccc(O)c(C)c3)nc3[nH]nc(C)c3c12` [Example 185, 4-(6-fluoro-1-methyl-9-(methyloxy)-8-{[(1-methylpiperidin-4-yl)methyl]oxy}-3H-pyrazolo[3,4-c]isoquinolin-5-yl)-2-methylphenol] had an IC50 of no more than 99 nM.
In turn, `Cc1n[nH]c2nc(-c3ccc(O)c(Cl)c3)c3c(F)cc(OCCN4CCCCC4)c(F)c3c12` [Example 186, 2-chloro-4-{6,9-difluoro-1-methyl-8-[(2-piperidin-1-ylethyl)oxy]-3H-pyrazolo[3,4-c]isoquinolin-5-yl}phenol] returned an IC50 of no more than 99 nM.
To `CCN1CCN(CCOc2cc(F)c3c(-c4ccc(O)c(Cl)c4)nc4[nH]nc(C)c4c3c2F)CC1` [Example 187, 2-chloro-4-(8-{[2-(4-ethylpiperazin-1-yl)ethyl]oxy}-6,9-difluoro-1-methyl-3H-pyrazolo[3,4-c]isoquinolin-5-yl)phenol] belongs no more than 99 nM.
`CCN(CC)CCOc1cc(F)c2c(-c3ccc(O)c(Cl)c3)nc3[nH]nc(C)c3c2c1F` [Example 188, 2-chloro-4-(8-{[2-(diethylamino)ethyl]oxy}-6,9-difluoro-1-methyl-3H-pyrazolo[3,4-c]isoquinolin-5-yl)phenol]: the IC50 was no more than 99 nM.
To `Cc1n[nH]c2nc(-c3ccc4[nH]ccc4c3)c3c(F)cc(O)c(F)c3c12` [Example 191, 6,9-difluoro-5-(1H-indol-5-yl)-1-methyl-3H-pyrazolo[3,4-c]isoquinolin-8-ol] belongs 100 to 999 nM; to `Cc1n[nH]c2nc(-c3ccc(N)cc3)c3c(F)cc(O)c(F)c3c12` [Example 193, 5-(4-aminophenyl)-6,9-difluoro-1-methyl-3H-pyrazolo[3,4-c]isoquinolin-8-ol], 1000 to 2000 nM; to `COc1c(OCCN2CCN(C)CC2)cc2c(c(-c3ccc(O)c(Cl)c3)nc3[nH]nc(C)c32)c1F` [Example 194, 2-chloro-4-(6-fluoro-1-methyl-7-(methyloxy)-8-{[2-(4-methylpiperazin-1-yl)ethyl]oxy}-3H-pyrazolo[3,4-c]isoquinolin-5-yl)phenol], no more than 99 nM.
To `Cc1n[nH]c2nc(-c3cnc(N)s3)c3c(F)cc(O)c(F)c3c12` [Example 195, 5-(2-amino-1,3-thiazol-5-yl)-6,9-difluoro-1-methyl-3H-pyrazolo[3,4-c]isoquinolin-8-ol] belongs no more than 99 nM; to `CCN1CCN(CCOc2cc(F)c3c(-c4ccc(O)c(Cl)c4)nc4[nH]nc(C)c4c3c2OC)CC1` [Example 196, 2-chloro-4-[8-{[2-(4-ethylpiperazin-1-yl)ethyl]oxy}-6-fluoro-1-methyl-9-(methyloxy)-3H-pyrazolo[3,4-c]isoquinolin-5-yl]phenol], no more than 99 nM; to `COc1c(OCCN2CCN(C)CC2)cc(F)c2c(-c3ccc(O)c(Cl)c3)nc3[nH]nc(C)c3c12` [Example 197, 2-chloro-4-(6-fluoro-1-methyl-9-(methyloxy)-8-{[2-(4-methylpiperazin-1-yl)ethyl]oxy}-3H-pyrazolo[3,4-c]isoquinolin-5-yl)phenol], no more than 99 nM.
`Cc1n[nH]c2nc(-c3ccc(N)nc3)c3c(F)cc(O)c(F)c3c12` [Example 198, 5-(6-aminopyridin-3-yl)-6,9-difluoro-1-methyl-3H-pyrazolo[3,4-c]isoquinolin-8-ol] had an IC50 greater than 2000 nM.
In the case of `Cc1n[nH]c2nc(-c3ccc(N)s3)c3c(F)cc(O)c(F)c3c12` [Example 199, 5-(5-amino-2-thienyl)-6,9-difluoro-1-methyl-3H-pyrazolo[3,4-c]isoquinolin-8-ol] it was 100 to 999 nM.
To `CCN1CCN(CCCOc2cc(F)c3c(-c4ccc(O)c(Cl)c4)nc4[nH]nc(C)c4c3c2OC)CC1` [Example 200, 2-chloro-4-[8-{[3-(4-ethylpiperazin-1-yl)propyl]oxy}-6-fluoro-1-methyl-9-(methyloxy)-3H-pyrazolo[3,4-c]isoquinolin-5-yl]phenol] belongs no more than 99 nM; to `COc1c(OCCCN2CCN(C)CC2)cc(F)c2c(-c3ccc(O)c(Cl)c3)nc3[nH]nc(C)c3c12` [Example 201, 2-chloro-4-(6-fluoro-1-methyl-9-(methyloxy)-8-{[3-(4-methylpiperazin-1-yl)propyl]oxy}-3H-pyrazolo[3,4-c]isoquinolin-5-yl)phenol], no more than 99 nM.
To `Cc1n[nH]c2nc(-c3ccc4cc[nH]c4c3)c3c(F)cc(O)c(F)c3c12` [Example 202, 6,9-difluoro-5-(1H-indol-6-yl)-1-methyl-3H-pyrazolo[3,4-c]isoquinolin-8-ol] belongs greater than 2000 nM; to `CC(=O)Nc1ncc(-c2nc3[nH]nc(C)c3c3c(F)c(O)cc(F)c23)s1` [Example 203, N-[5-(6,9-difluoro-8-hydroxy-1-methyl-3H-pyrazolo[3,4-c]isoquinolin-5-yl)-1,3-thiazol-2-yl]acetamide], 1000 to 2000 nM.

The record behind these values is US7872014B2, “Anaplastic lymphoma kinase modulators and methods of use” (Exelixis, Inc., priority 2003, dated 2011).
